# Values of other authors in patent US20210176995A1, “Disinfection Composition Comprising Tartaric Acid and Lactic Acid” (Wiping Systems ApS, priority 2016, published 2021).
# Test system: Aspergillus b., Bacillus S., Cereus and Clostridium spores
# Conditions: surfaces
row,Compound,"killing of Aspergillus b., Bacillus S., Cereus and Clostridium spores"
1,CCCCCCCCCC[N+](C)(C)CCCCCCCCCC.[Cl-] [DDAC],can't be killed
2,"CCO [alcohol, ethanol]",can't be killed
3,PHMB,can't be killed
